# Assay results taken from patent US7276533B2, “Compositions useful for the treatment of pathologies responding to the activation of PPAR-gamma receptor” (Sigma-Tau Industrie Farmaceutiche Riunite S.p.A., priority 2001, dated 2007).
# Experiments:
# [1] = system: NB4 cells (human promyelocitic leukemia); test: Differentiation of NB4 cells into granulocytes, NBT dye reduction, spectrophotometric assay at 540 nm; type: cell-based; conditions: 2-3 days, FIG. 2
# Protocol: The pro-differentiative activity of the spirolaxine (ST 1397) and the ATRA, both alone and in association, was assessed in this experimental model.
# NB4 cells were grown in 25 cm^2 flasks at a density of approx 100.000 cells/ml in 5 ml of RPMI 1640 culture with 10% fetal calf serum (FCS). After one day, the cells were treated with ATRA at a concentration of 10^−7 M, or with ST 1397 at doses of 0,1, 0,5 and 1 μM, or with equivalent volumes of the two compounds in association. Then, the cells were put into the incubator for 2-3 days, without replacing the culture medium.
# At the end of the second or third day of treatment, the differentiation of the cells into granulocytes was measured by the NBT dye reduction and the spectrophotomectric assay of the samples.
# The retinoic acid was dissolved in the culture medium with a solution of DMSO 1 mM. Control cultures were treated with equivalent volumes of DMSO, since this compound (DMSO) can be differentiating in certain experimental conditions.
# To measure the differentiative effect, 500.000 cells have been gathered from each sample, centrifuged and re-suspended in 1 ml of RPMI 1640 culture with 10% serum, 1 mg/ml of nitroblue tetrazolium (NBT) and 100 ng of PMA. The re-suspended cells were incubated at 37° C. for 20-60 min. […]
# The samples were sonicated to complete lysis and then read with a spectrophotometer at a wave length of 540 nm.
# PPARγ receptor = biological target: T1, PPARγ receptor (Homo sapiens, UniProt P37231); test: Activation of PPARγ: cellular transfection with PPAR-γ plasmid and TK-PPAR-Reluc luciferase reporter vector; conditions: NIH-3T3 murine fibroblasts, 24 hour-treatment, spirolaxine 40 nM, FIG. 1
# T1 sequence (P37231 1-505): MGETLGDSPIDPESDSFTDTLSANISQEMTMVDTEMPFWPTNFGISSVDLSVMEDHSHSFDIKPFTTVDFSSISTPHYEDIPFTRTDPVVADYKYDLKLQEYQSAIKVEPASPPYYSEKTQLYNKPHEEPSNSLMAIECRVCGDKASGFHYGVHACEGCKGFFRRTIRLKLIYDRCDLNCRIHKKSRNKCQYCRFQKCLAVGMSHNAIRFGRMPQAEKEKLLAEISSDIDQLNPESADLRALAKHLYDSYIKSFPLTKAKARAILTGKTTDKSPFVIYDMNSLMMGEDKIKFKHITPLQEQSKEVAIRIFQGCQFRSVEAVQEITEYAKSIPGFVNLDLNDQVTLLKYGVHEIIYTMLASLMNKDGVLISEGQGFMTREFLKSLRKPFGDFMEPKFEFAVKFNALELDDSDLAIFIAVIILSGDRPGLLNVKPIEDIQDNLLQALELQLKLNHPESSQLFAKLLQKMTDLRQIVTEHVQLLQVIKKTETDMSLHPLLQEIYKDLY
# Protocol: The activation of the expression of the luciferase was put into evidence by transfecting the NIH-3T3 murine fibroblasts with the PPAR-γ plasmid and the TK-PPAR-Reluc reporter vector; the luciferase activity was measured after 24 hour-treatment with the spirolaxine at a concentration of 40 nM.
SMILES,"differentiation in NB4 cells (NBT reduction) ([1]; ST 1397 alone at 0,1, 0,5 and 1 μM)",luciferase activity mediated by the TK-PPAR-Reluc reporter vector (index of activation of the receptor) versus control (PPARγ receptor),differentiation in NB4 cells (NBT reduction) ([1]; ATRA alone at 10^−7 M)
COc1cc(O)cc2c1C(=O)OC2CCCCCC1CCCC2(CCC(C)O2)O1 (stereo not drawn) [spirolaxine],does not induce differentiation,seven times higher than the control,–
"CC1=C(/C=C/C(C)=C/C=C/C(C)=C/C(=O)O)C(C)(C)CCC1 [ATRA, all-trans retinoic acid, reference compound]",–,–,differentiative effect was already well known
